Experimental data reported in patent US20080039468A1, “Novel 3-Phenyltetrahydrocinnolin-5-Ol Derivative and Medicinal Use Thereof” (priority 2004, published 2008).
≈ marks a conversion by molar mass, not a printed value.

Test system: Mastocarcinoma Cells MCF-7
Assay: In vitro antitumor effect on mastocarcinoma cells MCF-7 (Methylene Blue staining, proliferation inhibition)
Type: cell-based
Conditions: Homo sapiens, MCF7, 72 h; MCF-7 cells, 3 days culture with test compound, RPMI 1640 with 10% serum, Methylene Blue absorbance; read-out: IC50 value (50% cytostatic concentration)
Protocol: In Vitro Antitumor Effect on Mastocarcinoma Cells MCF-7
By the use of RPMI 1640 medium (Asahi Tekunogurasu Co., Ltd.) containing 10% serum, 2,000 MCF-7 cells were seeded into a 96-well plate. The cells were cultured for 24 hours under conditions of 37° C. and 5% CO2/95% air, and then a test compound was added thereto, followed by culturing for another 3 days. Cells were stained with a 0.05% Methylene Blue solution and absorbance at 660 nm was measured with a microtiter plate reader (Benchmark Plus, mfd. by BIO RAD Laboratories Inc.). The proliferation inhibition rate was calculated by the following equation and the 50% cytostatic concentration was determined from a dose-response curve. Proliferation inhibition rate=((absorbance for control group−absorbance for drug-treated group)/absorbance for control group))×100

SMILES | IC50 [µg/mL]
CC1Cc2nnc(-c3cccc(C(F)(F)F)c3)cc2C(OC(=O)COCC(=O)NCCN2CCOCC2)C1 (centres unmarked) [Compound No. 15, 5-[(2-(morpholin-4-yl)ethyl)aminocarbonylmethoxyacetyl]oxy-7-methyl-3-(3-trifluoromethylphenyl)-5,6,7,8-tetrahydrocinnoline] | 0.171 (≈ 0.319 µM)
COC(=O)CCC(=O)OC1CC(C)Cc2nnc(-c3cccc(C(F)(F)F)c3)cc21 (centres unmarked) [Compound No. 26, 5-(3-methoxycarbonylpropanoyl)oxy-7-methyl-3-(3-trifluoromethylphenyl)-5,6,7,8-tetrahydro-cinnoline] | 1.18 (≈ 2.79 µM)
CCOC(=O)CCC(=O)OC1CC(C)Cc2nnc(-c3cccc(C(F)(F)F)c3)cc21 (centres unmarked) [Compound No. 27, 5-(3-ethoxycarbonylpropanoyl)oxy-7-methyl-3-(3-trifluoromethylphenyl)-5,6,7,8-tetrahydro-cinnoline] | 0.736 (≈ 1.69 µM)
CC1Cc2nnc(-c3cccc(C(F)(F)F)c3)cc2C(OC(=O)COCC(=O)NCc2cccnc2)C1 (centres unmarked) [Compound No. 16, 5-[(pyridin-3-ylmethyl)aminocarbonylmethoxyacetyl]oxy-7-methyl-3-(3-trifluoromethyl-phenyl)-5,6,7,8-tetrahydrocinnoline] | 0.166 (≈ 0.323 µM)
CCOCC(=O)OC1CC(C)Cc2nnc(-c3cccc(C(F)(F)F)c3)cc21 (centres unmarked) [Compound No. 13, 5-ethoxyacetyloxy-7-methyl-3-(3-trifluoromethylphenyl)-5,6,7,8-tetrahydrocinnoline] | 0.135 (≈ 0.342 µM)
CC1Cc2nnc(-c3cccc(C(F)(F)F)c3)cc2C(OC(=O)CCCC(=O)O)C1 (centres unmarked) [Compound No. 19, 5-(4-carboxybutanoyl)oxy-7-methyl-3-(3-trifluoromethylphenyl)-5,6,7,8-tetrahydrocinnoline] | 0.908 (≈ 2.15 µM)
COCCOC(=O)OC1CC(C)Cc2nnc(-c3cccc(C(F)(F)F)c3)cc21 (centres unmarked) [Compound No. 38, 5-(2-methoxyethoxycarbonyl)oxy-7-methyl-3-(3-trifluoromethylphenyl)-5,6,7,8-tetrahydro-cinnoline] | 0.649 (≈ 1.58 µM)
CC1Cc2nnc(-c3cccc(C(F)(F)F)c3)cc2C(OC(=O)CCCN(C)C)C1 (centres unmarked) [Compound No. 21, 5-(4-dimethylaminobutanoyl)oxy-7-methyl-3-(3-trifluoromethylphenyl)-5,6,7,8-tetrahydro-cinnoline] | 0.129 (≈ 0.306 µM)
CC1Cc2nnc(-c3cccc(C(F)(F)F)c3)cc2C(OC(=O)CCC(=O)NCCN2CCOCC2)C1 (centres unmarked) [Compound No. 23, 5-[3-[2-(morpholin-4-yl)ethyl]amino-carbonylpropanoyl]oxy-7-methyl-3-(3-trifluoromethylphenyl)-5,6,7,8-tetrahydrocinnoline] | 0.128 (≈ 0.246 µM)

Now from value to compound:

IC50 [µg/mL] | SMILES
0.139 (≈ 0.27 µM) | CC1Cc2nnc(-c3cccc(C(F)(F)F)c3)cc2C(OC(=O)COCC(=O)NCc2ccncc2)C1 (centres unmarked) [Compound No. 17, 5-[(pyridin-4-ylmethyl)aminocarbonylmethoxyacetyl]oxy-7-methyl-3-(3-trifluoromethyl-phenyl)-5,6,7,8-tetrahydrocinnoline]
4.34 | CC1Cc2nnc(-c3cccc(C(F)(F)F)c3)cc2C(OC(=O)N2CCOCC2)C1.Cl (centres unmarked) [Compound No. 43, 7-methyl-5-(morpholin-4-yl-carbonyl)oxy-3-(3-trifluoromethylphenyl)-5,6,7,8-tetrahydrocinnoline hydrochloride]
0.148 (≈ 0.349 µM) | CC1Cc2nnc(-c3cccc(C(F)(F)F)c3)cc2C(OC(=O)COCC(=O)O)C1 (centres unmarked) [Compound No. 14, 5-(carboxymethoxyacetyl)oxy-7-methyl-3-(3-trifluoromethylphenyl)-5,6,7,8-tetrahydrocinnoline]
0.144 (≈ 0.289 µM) | CC1Cc2nnc(-c3cccc(C(F)(F)F)c3)cc2C(OC(=O)CCC(=O)NCc2ccncc2)C1 (centres unmarked) [Compound No. 25, 5-[3-(pyridin-4-ylmethyl)aminocarbonylpropanoyl]oxy-7-methyl-3-(3-trifluoromethylphenyl)-5,6,7,8-tetrahydrocinnoline]
0.098 (≈ 0.197 µM) | CC1Cc2nnc(-c3cccc(C(F)(F)F)c3)cc2C(OC(=O)CCC(=O)NCc2cccnc2)C1 (centres unmarked) [Compound No. 24, 5-[3-(pyridin-3-ylmethyl)aminocarbonylpropanoyl]oxy-7-methyl-3-(3-trifluoromethylphenyl)-5,6,7,8-tetrahydrocinnoline]
0.981 (≈ 2.4 µM) | CC1Cc2nnc(-c3cccc(C(F)(F)F)c3)cc2C(OC(=O)CCC(=O)O)C1 (centres unmarked) [Compound No. 18, 5-(3-carboxypropanoyl)oxy-7-methyl-3-(3-trifluoromethylphenyl)-5,6,7,8-tetrahydrocinnoline]

Same assay, conditions: MCF-7 cells, 3 days culture with test compound, RPMI 1640 with 10% serum, Methylene Blue absorbance

IC50 value (50% cytostatic concentration) [µg/mL] | SMILES
1.339 (≈ 3.16 µM) | CC1Cc2nnc(-c3cccc(C(F)(F)F)c3)cc2C(OC(=O)CC(O)C(=O)O)C1 (centres unmarked) [Compound No. 20, 5-[(3-carboxy-3-hydroxy)propanoyl]oxy-7-methyl-3-(3-trifluoromethylphenyl)-5,6,7,8-tetrahydrocinnoline]
0.152 (≈ 0.327 µM) | CC1Cc2nnc(-c3cccc(C(F)(F)F)c3)cc2C(OC(=O)OCCN2CCOCC2)C1 (centres unmarked) [Compound No. 39, 5-(2-(morpholino-4-yl)ethoxycarbonyl)oxy-7-methyl-3-(3-trifluoromethylphenyl)-5,6,7,8-tetrahydrocinnoline]
